Measurements published in EP0755382B1, “QUINOLONE DERIVATIVE FOR TREATMENT OF URINARY INCONTINENCE” (AstraZeneca AB, priority 1994, dated 1995).

How the values were obtained:
intestinal smooth muscle = conditions: Vitolinya et al, Khim.-Farm. Zh., 15(1), 39-42, 1981; cited from earlier work
[1] = tested on: guinea pig detrusor strips; test: first in vitro test: relaxation of guinea pig bladder detrusor strips contracted with 15 mM KCl; format: cell-based, guinea pigs; conditions: Cavia porcellus
Text: The actions of the compound as a smooth muscle relaxant useful as a therapeutic agent for the treatment of urinary incontinence through its action to open potassium channels and hyperpolarize the membrane potential in the bladder detrusor smooth muscle can be shown using suitably designed in vitro tests, such as the one described following. […] "IC50" is a well understood term and means the concentration of test compound which causes a 50% decrease in the in vitro contraction of the bladder tissue described in the following test.
Hale albino Hartley guinea pigs (450-500g) are sacrificed by carbon dioxide induced asphyxiation and quickly exsanguinated. The lower abdominal cavity is opened and the urinary bladder isolated. The bladder is cleaned of surrounding connective and adipose tissue, and the portion above the ureteral orifices is removed and washed in Krebs-Henseleit buffer solution of the following composition (in mH): NaCl 118.0, KCl 4.7, […] 1.2, KH2PO4 1.2, CaCl2 2.5, NaHCO3 25.0 and d-glucose 11.1. The solution is warmed to 37°C and gassed with 95% O2 and 5% CO2. […]
When the tissue relaxes to a steady state after the final washing, 15 mM KCl is again applied. […] The effect of the compound at each dose is expressed as % of the maximum inhibitory response, which is further normalized with respect to the corresponding effect of the compound vehicle control. […]

[2] = tested on: guinea pig detrusor strips; test: second in vitro test: relaxation of guinea pig bladder detrusor strips contracted with 80 mM KCl; format: cell-based, guinea pigs; conditions: for potency in the second test compared with the first test: 80 mM KCl (second test) versus 15 mM KCl (first test)
Protocol: This second in vitro test is similar to the one described above with regard to tissue preparation and data acquisition. However, the following exceptions are noted. In this second test, the contraction of the detrusor strips during priming and after the equilibration period is achieved with 80 mM instead of 15 mM KCl (total concentration in the bath).
Typical calcium channel blockers like nifedipine, nimodipine, isradipine, and verapamil are able to relax and reduce the myogenic activity of guinea pig detrusor strips in both tests by virtue of their blocking action on calcium channels.

bladder = test: in vivo test in conscious catheterized rats: interval between bladder contractions, heart rate and MAP after oral dosing; set-up: species or system Wistar rats; conditions: dosed orally, 3 mg/kg
Protocol: Hale Wistar rats (400 - 500 g) are anesthetized with 50 mg/kg Nembutal, i.p. For each rat, the abdominal region and the front and back of the neck are shaved and povidone-iodine is applied to the skin. For carotid catheterization, the left carotid artery is exposed via a small ventral cervical incision. The exposed area is flushed with a 2% lidocaine HCl solution to relax the vessel. The catheter, filled with 0.9% saline, is introduced approximately 2.4 cm into the artery so that its tip resided in the aortic arch. The distal end of the catheter is exteriorized at the nape of the neck, filled with heparin (1000 units/ml) and heat sealed. For bladder catheterization, the bladder is exposed through a midline abdominal incision. […]
The rats are weighed, orally sham-dosed (dosing needle introduced, but no fluid expelled), and transvesical saline infusion (.18 ml/min) is begun and continued throughout the experiment. Variations in blood pressure, heart rate, intravesical pressure and urine output are recorded on either a Grass Polygraph or a Gould TA4000 recording system. […] At this point, a basal level of each experimental parameter is recorded and the rats are administered by oral gavage the appropriate dose of compound (in a 75% PEG 400 - saline vehicle) in concentrations such that the volume is 1 ml/kg body weight. […]

urinary incontinence = conditions: preliminary clinical trial; Nurse et al., British Journal of Urology (1991), 68, 27-31; cited from earlier work

CC1=C(C#N)C(c2ccccc2)C2=C(CC(C)(C)CC2=O)N1 (centres unmarked) [3-Cyano-4-phenyl-2,7,7-trimethyl-4,6,7,8-tetrahydro-5(1H)-quinolone]
effect on the cardiovascular system (intestinal smooth muscle): hypotensive properties | spasmogenic effect of acetylcholine and barium chloride on intestinal smooth muscle (intestinal smooth muscle): capable of blocking the spasmogenic effect

N#Cc1cccc([C@@H]2C=C(C(F)(F)F)NC3=C2C(=O)CCC3)c1 [The compound, (S)-(-)-4-(3-Cyanophenyl)-2-trifluoromethyl-4,6,7,8-tetrahydro-5(1H)-quinolone]
IC50 ([1]; concentration causing a 50% decrease in the in vitro contraction of the bladder tissue): 4.2 µM | IC50 ([2]; Cavia porcellus, second test, 80 mM KCl): 41.1 µM | activity and selectivity for the bladder (bladder): active and selective for the bladder without significant cardiovascular effects

CC1(C)Oc2ccc(C#N)cc2C(N2CCCC2=O)C1O (centres unmarked) [cromakalim]
treatment of urinary incontinence (urinary incontinence): effective | IC50 ([1]; first test): 0.6 to 0.9 µM | relaxant activity ([2]; second test, 80 mM KCl, at concentrations as high as 30 µM): insignificant relaxant activity

COC(=O)C1=C(C)NC(C)=C(C(=O)OC(C)C)C1c1cccc2nonc12 (centres unmarked) [isradipine]
potency in the second test compared with the first test [2]: more potent in the second test

COc1ccc(Cc2nccc3cc(OC)c(OC)cc23)cc1OC [papaverine]
sustained tension after high KCl stimulation ([2]; 80 mM KCl, 300 µM): totally abolished

COc1ccc(CCN(C)CCCC(C#N)(c2ccc(OC)c(OC)c2)C(C)C)cc1OC (centres unmarked) [verapamil]
potency in the second test compared with the first test [2]: more potent in the second test
